Experimental data reported in US20260373266A1, “PROTEIN DEGRADERS AND USES THEREOF” (KYMERA THERAPEUTICS, INC., priority 2022, published 2026).
pKd: −log10 of the molar value.

Target: T1, DCAF1 WD40 domain (residues 1077-1390) (Homo sapiens, UniProt Q9Y4B6)
T1 construct: DCAF1 WD40 domain (residues 1077-1390)
Experiment: DCAF1 binding assay by SPR (Biacore 8K+), DCAF1-3 KD
Conditions: 25 °C, read-out: DCAF1-3 SPR (KD)

T1 sequence (Q9Y4B6 1077-1390): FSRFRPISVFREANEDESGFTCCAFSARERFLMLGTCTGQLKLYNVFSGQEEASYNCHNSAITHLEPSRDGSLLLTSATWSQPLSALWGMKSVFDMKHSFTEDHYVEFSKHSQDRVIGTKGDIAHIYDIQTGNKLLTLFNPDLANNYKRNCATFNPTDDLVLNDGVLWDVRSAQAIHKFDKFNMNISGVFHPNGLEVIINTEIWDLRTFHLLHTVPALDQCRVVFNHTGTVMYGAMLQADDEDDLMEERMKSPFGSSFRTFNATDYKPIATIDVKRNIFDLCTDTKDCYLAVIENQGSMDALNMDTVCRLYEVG

| Structure (SMILES) | pKd |
| --- | --- |
| FC(F)(F)Oc1ccc(N2CCC[C@@H](Nc3cc(N4CCOCC4)ccn3)C2)nc1 [I-426] | 4.00 to 5.00 |
| N#Cc1cc2c(nc1N1CCC[C@@H](Nc3cc(N4CCOCC4)ccn3)C1)CCC2 [I-427] | < 3.70 |
| Cc1cc(N2CCC[C@@H](Nc3cc(N4CCOCC4)ccn3)C2)cnc1OC(C)C [I-428] | < 3.70 |
| COC(=O)Cc1ccnc(N2CCC[C@@H](Nc3cc(N4CCOCC4)ccn3)C2)c1 [I-429] | 4.00 to 5.00 |
| CC(=O)Nc1cccnc1N1CCC[C@@H](Nc2cc(N3CCOCC3)ccn2)C1 [I-430] | < 3.70 |
| O=C1COc2cc(N3CCC[C@@H](Nc4cc(N5CCOCC5)ccn4)C3)cnc2N1 [I-431] | > 5.00 |
| Cc1nc(N2CCC[C@@H](Nc3cc(N4CCOCC4)ccn3)C2)ccc1CO [I-432] | < 3.70 |
| CC(C)Oc1cncc(N2CCC[C@@H](Nc3cc(N4CCOCC4)ccn3)C2)c1 [I-433] | 3.70 to 4.00 |
| O=C1Cc2cnc(N3CCC[C@@H](Nc4cc(N5CCOCC5)ccn4)C3)cc2N1 [I-434] | < 3.70 |
| c1ccc(Cc2ccc(N3CCC[C@@H](Nc4cc(N5CCOCC5)ccn4)C3)nc2)cc1 [I-435] | < 3.70 |
| c1ccc(Oc2cncc(N3CCC[C@@H](Nc4cc(N5CCOCC5)ccn4)C3)c2)cc1 [I-436] | 4.00 to 5.00 |
| c1ccc(-c2cc(N3CCC[C@@H](Nc4cc(N5CCOCC5)ccn4)C3)ccn2)nc1 [I-437] | 4.00 to 5.00 |
| NC(=O)C[C@H](NC(=O)c1ccc(C#Cc2ccccc2)cc1)c1cccc(Cl)c1 [I-438] | < 3.70 |
| NC(=O)C[C@H](NC(=O)c1ccc(-c2nc(C3CC3)n[nH]2)cc1)c1cccc(Cl)c1 [I-439] | < 3.70 |
| NC(=O)C[C@H](NC(=O)CNC1=Nc2ccccc2CC1)c1cccc(Cl)c1 [I-440] | < 3.70 |
| NC(=O)C[C@H](NC(=O)CCc1nc2c(F)cccc2[nH]1)c1cccc(Cl)c1 [I-441] | < 3.70 |
| CN1CC=CC[C@@H]1CC(=O)N[C@@H](CC(N)=O)c1cccc(Cl)c1 [I-442] | < 3.70 |
| Cn1cnc(C[C@H](O)C(=O)N[C@@H](CC(N)=O)c2cccc(Cl)c2)c1 [I-443] | < 3.70 |
| NC(=O)C[C@H](NC(=O)[C@@H]1CC[C@](O)(c2ccccc2)C1)c1cccc(Cl)c1 [I-444] | < 3.70 |
| NC(=O)C[C@H](NC(=O)[C@H]1C[C@@](O)(c2ccccc2)C1)c1cccc(Cl)c1 [I-445] | < 3.70 |
| C=CC(=O)N1CCN(c2ccnc(N[C@@H]3CCCN(c4cccc(F)c4)C3)c2)CC1 [I-446] | < 3.70 |
| C=CC(=O)Nc1ccnc(N[C@@H]2CCCN(c3cccc(F)c3)C2)c1 [I-447] | 4.00 to 5.00 |
| C=CC(=O)N(C)CCN(C)c1ccnc(N[C@@H]2CCCN(c3cccc(F)c3)C2)c1 [I-448] | < 3.70 |
| C=CC(=O)N1CCC[C@@H](Nc2cc(N3CCOCC3)ccn2)C1 [I-449] | < 3.70 |
| C=CC(=O)Nc1cccc(N2CCC[C@@H](Nc3cc(N4CCOCC4)ccn3)C2)c1 [I-450] | < 3.70 |
| C=CC(=O)NC1CCN(c2ccnc(N[C@@H]3CCCN(c4cccc(F)c4)C3)c2)CC1 [I-451] | < 3.70 |
| C=CC(=O)N1CCC(c2n[nH]cc2C(=O)N[C@@H](CC(N)=O)c2cccc(Cl)c2)CC1 [I-452] | < 3.70 |

| Structure (SMILES) | pKd |
| --- | --- |
| C=CC(=O)N1CCC(c2n[nH]cc2C(=O)N[C@@H](CC(N)=O)c2cccc(Cl)c2)C1 (stereo partly shown) [I-453] | < 3.70 |
| C=CC(=O)NC1CCCN(c2ccnc(N[C@@H]3CCCN(c4cccc(F)c4)C3)c2)C1 (stereo partly shown) [I-454] | 3.70 to 4.00 |
| C=CC(=O)N1CC(c2n[nH]cc2C(=O)N[C@@H](CC(N)=O)c2cccc(Cl)c2)C1 [I-455] | < 3.70 |
| C=CC(=O)NC1CCN(c2ccnc(N[C@@H]3CCCN(c4cccc(F)c4)C3)c2)C1 (stereo partly shown) [I-456] | < 3.70 |
| C=CC(=O)N1CC(N(C)c2ccnc(N[C@@H]3CCCN(c4cccc(F)c4)C3)c2)C1 [I-457] | 4.00 to 5.00 |
| C=CC(=O)N1CCC(N(C)c2ccnc(N[C@@H]3CCCN(c4cccc(F)c4)C3)c2)C1 (stereo partly shown) [I-458] | < 3.70 |
| C=CC(=O)N1CCCC(N(C)c2ccnc(N[C@@H]3CCCN(c4cccc(F)c4)C3)c2)C1 (stereo partly shown) [I-459] | < 3.70 |
| C=CC(=O)N1CCC(N(C)c2ccnc(N[C@@H]3CCCN(c4cccc(F)c4)C3)c2)CC1 [I-460] | 4.00 to 5.00 |
| C=C1CCCN(c2ccnc(N[C@@H]3CCCN(c4cccc(F)c4)C3)c2)C1=O [I-461] | < 3.70 |
| C=CC(=O)N(C)CCCN(C)c1ccnc(N[C@@H]2CCCN(c3cccc(F)c3)C2)c1 [I-462] | 4.00 to 5.00 |
| C=CC(=O)N(C)C1CC(N(C)c2ccnc(N[C@@H]3CCCN(c4cccc(F)c4)C3)c2)C1 (stereo partly shown) [I-463] | < 3.70 |
| C=CC(=O)N1CCC1C(=O)N1CCN(c2ccnc(N[C@@H]3CCCN(c4cccc(F)c4)C3)c2)CC1 (stereo partly shown) [I-464] | < 3.70 |
| C=CC(=O)N1CC2(CCN(c3ccnc(N[C@@H]4CCCN(c5cccc(F)c5)C4)c3)CC2)C1 [I-465] | < 3.70 |
| C=CC(=O)NCN1CCN(c2ccnc(N[C@@H]3CCCN(c4cccc(F)c4)C3)c2)CC1 [I-466] | 4.00 to 5.00 |
| C=CC(=O)NCc1n[nH]cc1C(=O)N[C@@H](CC(N)=O)c1cccc(Cl)c1 [I-467] | < 3.70 |
| C=CC(=O)n1ccc(-c2n[nH]cc2C(=O)N[C@@H](CC(N)=O)c2cccc(Cl)c2)n1 [I-468] | < 3.70 |
| C=CC(=O)N1CCCC(c2[nH]ncc2C(=O)N[C@@H](CC(N)=O)c2cccc(Cl)c2)C1 (stereo partly shown) [I-469] | < 3.70 |
| C=CC(=O)NC1CCC(c2n[nH]cc2C(=O)N[C@@H](CC(N)=O)c2cccc(Cl)c2)CC1 (stereo partly shown) [I-470] | < 3.70 |
| C=CC(=O)N1CCC(c2n[nH]cc2C(=O)N[C@@H](CC(N)=O)c2cccc(Cl)c2)=N1 [I-471] | < 3.70 |
| C=CC(=O)n1cc(-c2n[nH]cc2C(=O)N[C@@H](CC(N)=O)c2cccc(Cl)c2)cn1 [I-472] | < 3.70 |
| C=CC(=O)NC#Cc1n[nH]cc1C(=O)N[C@@H](CC(N)=O)c1cccc(Cl)c1 [I-473] | < 3.70 |
| C=CC(=O)Nc1ccc(-c2n[nH]cc2C(=O)N[C@@H](CC(N)=O)c2cccc(Cl)c2)cc1 [I-474] | < 3.70 |
| C=CC(=O)Nc1ccc2[nH]cc(C(=O)N[C@@H](CC(N)=O)c3cccc(Cl)c3)c2c1 [I-475] | < 3.70 |
| N#Cc1nccc(CN2CCC[C@@H](Nc3cc(N4CCOCC4)ccn3)C2)n1 [I-476] | < 3.70 |
| C=CC(=O)N1CC[C@H](N(C)c2ccnc(N[C@@H]3CCCN(c4cccc(F)c4)C3)c2)C1 [I-477] | < 3.70 |
| C=CC(=O)N[C@H]1CCN(c2ccnc(N[C@@H]3CCCN(c4cccc(F)c4)C3)c2)C1 [I-478] | < 3.70 |
| C=CC(=O)N1CC[C@H]1C(=O)N1CCN(c2ccnc(N[C@@H]3CCCN(c4cccc(F)c4)C3)c2)CC1 [I-479] | < 3.70 |

| Structure (SMILES) | pKd |
| --- | --- |
| C=CC(=O)N(C)[C@H]1C[C@H](N(C)c2ccnc(N[C@@H]3CCCN(c4cccc(F)c4)C3)c2)C1 [I-480] | < 3.70 |
| C=CC(=O)N1CCC[C@H](N(C)c2ccnc(N[C@@H]3CCCN(c4cccc(F)c4)C3)c2)C1 [I-481] | < 3.70 |
| C=CC(=O)N[C@H]1CC[C@H](c2n[nH]cc2C(=O)N[C@@H](CC(N)=O)c2cccc(Cl)c2)CC1 [I-482] | < 3.70 |
| C=CC(=O)N1CCC[C@H](c2n[nH]cc2C(=O)N[C@@H](CC(N)=O)c2cccc(Cl)c2)C1 [I-483] | < 3.70 |
| C[C@@H](O)c1cncc(N2CCC[C@@H](Nc3cc(N4CCOCC4)ccn3)C2)c1 [I-484] | < 3.70 |
| N[C@@H](c1cncc(N2CCC[C@@H](Nc3cc(N4CCOCC4)ccn3)C2)c1)C1CC1 [I-485] | < 3.70 |
| c1cc(N2CCOCC2)cc(NC2CCCN(c3cnn[nH]3)C2)n1 (stereo not shown) [I-486] | < 3.70 |
| Cc1sc2c(c1C)C(c1ccc(Cl)cc1)=N[C@@H](CC(=O)NCCOCCOCCOCCOCCOCCn1ncc(C(=O)N[C@@H](CC(N)=O)c3cccc(Cl)c3)c1-c1ccccc1F)c1nnc(C)n1-2 [I-487] | < 3.70 |
| Cc1sc2c(c1C)C(c1ccc(Cl)cc1)=N[C@@H](CC(=O)NCCOCCOCCOCCOCCOCCn1ncc(C(=O)N[C@@H](CC(N)=O)c3cccc(Cl)c3)c1-c1ccccc1F)c1nnc(C)n1-2 [I-488] | 4.00 to 5.00 |
| Cc1sc2c(c1C)C(c1ccc(Cl)cc1)=N[C@@H](CC(=O)NCCOCCOCCOCCOCCOCCn1cc(C(=O)N[C@@H](CC(N)=O)c3cccc(Cl)c3)c(-c3ccccc3F)n1)c1nnc(C)n1-2 [I-489] | 3.70 to 4.00 |
| Cc1sc2c(c1C)C(c1ccc(Cl)cc1)=N[C@@H](CC(=O)NCCOCCOCCOCCOCCn1cc(C(=O)N[C@@H](CC(N)=O)c3cccc(Cl)c3)c(-c3ccccc3F)n1)c1nnc(C)n1-2 [I-490] | 4.00 to 5.00 |
| Cc1sc2c(c1C)C(c1ccc(Cl)cc1)=N[C@@H](CC(=O)NCCOCCOCCOCCOCCn1ncc(C(=O)N[C@@H](CC(N)=O)c3cccc(Cl)c3)c1-c1ccccc1F)c1nnc(C)n1-2 [I-491] | < 3.70 |
| Cc1sc2c(c1C)C(c1ccc(Cl)cc1)=N[C@@H](CC(=O)NCCOCCOCCOCCOCCOCCOCCn1ncc(C(=O)N[C@@H](CC(N)=O)c3cccc(Cl)c3)c1-c1ccccc1F)c1nnc(C)n1-2 [I-492] | < 3.70 |
| Cc1sc2c(c1C)C(c1ccccc1)=N[C@@H](CC(=O)NCCOCCOCCOCCOCCOCCOCCn1cc(C(=O)N[C@@H](CC(N)=O)c3cccc(Cl)c3)c(-c3ccccc3F)n1)c1nnc(C)n1-2 [I-493] | < 3.70 |
| Fc1cccc(N2CCC[C@@H](n3cnc4nccc(N5CCOCC5)c43)C2)c1 [I-494] | < 3.70 |
| NC(=O)C[C@H](NC(=O)c1cn(Cc2ccccc2)nc1-c1ccccc1F)c1cccc(Cl)c1 [I-495] | < 3.70 |
| NC(=O)C[C@H](NC(=O)c1cn[nH]c1C1=CCOCC1)c1cccc(Cl)c1 [I-496] | 4.00 to 5.00 |
| CN(C)c1ccnc(N[C@@H]2CCCN(c3cccc(F)c3)C2)c1 [I-498] | 4.00 to 5.00 |
| Fc1cccc(N2CCC[C@H](Nc3cc(N4CCOCC4)ccn3)C2)c1 [I-499] | 4.00 to 5.00 |
| C[C@@]1(Nc2cc(N3CCOCC3)ccn2)CCCN(c2cccc(F)c2)C1 [I-500] | < 3.70 |
| NC(=O)C[C@H](NC(=O)c1cn[nH]c1C1CCOCC1)c1ccccc1 [I-501] | 4.00 to 5.00 |
| O=C1C(Nc2cc(N3CCOCC3)ccn2)CCCN1c1cccc(F)c1 (stereo not shown) [I-502] | < 3.70 |
| Fc1cccc(N2CCC[C@@H](Nc3cc(N4CCCCC4)ccn3)C2)c1 [I-503] | > 5.00 |
| COc1ncccc1-c1[nH]ncc1C(=O)N[C@@H](CC(N)=O)c1cccc(Cl)c1 [I-504] | < 3.70 |
| Cc1ccc(F)c(-c2[nH]ncc2C(=O)N[C@@H](CC(N)=O)c2cccc(Cl)c2)c1 [I-505] | > 5.00 |
